Results: PMC2685009, “Identification and Characterization of Inhibitors of Human Apurinic/apyrimidinic Endonuclease APE1” (PLoS ONE, 2009)

Columns and labels:
[1] = set-up: method as in PMID 18042731; conditions: cited from earlier work
[2] = tested on: AP site cleavage activity of HEK 293T whole cell extract; assay: Whole cell extract AP endonuclease activity assay (HEK 293T); type: biochemical, human; conditions: inhibitor at 100 µM
Method: (§1) The radiotracer assay was performed essentially as described. In brief, prioritized candidate inhibitor compounds from the qHTS assay were incubated at various concentrations (100 µM data shown) with APE1 (100 pg) at room temperature for 15 min in 25 mM Tris pH 7.5, 25 mM NaCl, 1 mM MgCl2, 1 mM DTT and 0.01% Tween-20. At that time, 0.5 pmol ^32P-radiolabeled THF-containing 34 mer double-stranded DNA substrate was added. Incision reactions were then carried out immediately at 37°C for 10 min in a final volume of 10 µL. After the addition of an equal volume of stop buffer (0.05% bromophenol blue and xylene cynol, 20 mM EDTA, 95% formamide), the radiolabeled substrate and product were separated on a standard polyacrylamide denaturing gel and quantified by phosphorimager analysis.
(§2) HEK 293T or HeLa cells – maintained in DMEM with 10% fetal bovine serum and 1% Penicillin-Streptomycin – were harvested, washed with 1× PBS, re-suspended in cold 222 mM KCl, incubated on ice for 30 min, and clarified by centrifugation at 12,000×g for 15 min at 4°C [23]. The supernatant (whole cell extract) was retained, the protein concentration determined using the Bio-Rad Bradford reagent, and aliquots were stored at −80°C. AP endonuclease activity assays were performed with or without candidate inhibitor compounds as described above, except 60 ng HEK 293T or 80 ng of HeLa whole cell extract was used.

[3] = tested on: AP site cleavage activity of HeLa whole cell extract; assay: Whole cell extract AP endonuclease activity assay (HeLa); type: biochemical, human; conditions: inhibitor at 100 µM
Method: as §1, §2

E. coli EndoIV = target: T1, E. coli EndoIV (Escherichia coli, UniProt P0A6C1); assay: E. coli Endonuclease IV (EndoIV) profiling assay; type: biochemical; conditions: for IC50: 2 nM EndoIV, 50 nM substrate, read-out: Endo IV IC50 (E. coli EndoIV profiling)
T1 construct: made in house
Method: EndoIV enzyme and substrate (same as that used with APE1) optimization tests were initially performed at a 40 µL final volume in a 384-well format. Reaction concentrations of 2 nM EndoIV and 50 nM DNA substrate were selected for subsequent experiments. For running the assay in 1536-well format, the same protocol as described for APE1 above was followed.

HeLa cells [4] = assay: Cell-based colony survival assay with MMS; set-up: species or system human; conditions: HeLa colony formation, 0.25 mM MMS, 1 or 5 µM inhibitor
Method: To measure colony survival, HeLa cells were plated in 6-well plates 12–20 hr prior to treatment. Cells were treated as follows: (i) exposed only to control medium, (ii) exposed to 0.25 mM MMS alone for 1 hr, (iii) exposed to 1 or 5 µM of the indicated inhibitor compound alone for 4 hr, or (iii) exposed to inhibitor compound alone for 3 hr and then with MMS for an additional 1 hr at 37°C. Following treatment, cells were washed once with 1× PBS and incubated in regular maintenance media (DMEM, 10% FBS) at 37°C for 10–15 days. Colonies formed were fixed in methanol, stained in methylene blue (Sigma), and counted to determine percent survival relative to the untreated controls.

HeLa cells [5] = assay: AP site measurement in chromosomal DNA; type: cell-based, human; conditions: for AP site damage, inhibitor alone: 5 µM inhibitor alone, relative to control cells; for AP site damage, inhibitor plus MMS: 5 µM inhibitor plus MMS
Method: HeLa cells were treated as above, except only at 5 µM inhibitor where indicated. Following exposure, chromosomal DNA was isolated and steady-state AP site levels were measured using the DNA Damage Quantification Kit from Dojindo Molecular Technologies, Inc. (Gaithersburg, MD) as previously described.

APE1 [6] = target: T2, APE1 (Homo sapiens, UniProt P27695); assay: qHTS fluorogenic AP site incision assay (TAMRA/BHQ-2 red substrate, 1536-well); type: biochemical; conditions: 50 nM substrate, 0.75 nM APE1; read-out: qHTS IC50 (primary screen, APE1)
T2 construct: made in house
T2 sequence (P27695 whole entry): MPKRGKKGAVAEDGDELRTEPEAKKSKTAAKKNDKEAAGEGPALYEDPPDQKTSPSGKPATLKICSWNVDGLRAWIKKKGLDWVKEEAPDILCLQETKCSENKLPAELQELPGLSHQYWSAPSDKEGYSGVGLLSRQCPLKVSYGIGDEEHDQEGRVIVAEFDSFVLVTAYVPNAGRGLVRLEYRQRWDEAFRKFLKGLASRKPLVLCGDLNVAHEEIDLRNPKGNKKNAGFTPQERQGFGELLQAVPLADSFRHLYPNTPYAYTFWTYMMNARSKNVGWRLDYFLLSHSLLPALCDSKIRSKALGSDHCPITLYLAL
Method: Recombinant human APE1 and E. coli EndoIV were purified as previously described. Deoxyoligonucleotides containing a tetrahydrofuran (THF) AP site analog, carboxytetramethyl rhodamine (TAMRA), or Black Hole Quencher-2 (BHQ-2), as appropriate (see Figure 1), were purchased from Biosearch Technologies, Inc., (Novato, CA). To create double-stranded DNA substrates, equal volumes of 200 µM solutions of the respective strands in reaction buffer were mixed and incubated at 95°C for 5 min. The annealing mixture was allowed to cool gradually to room temperature. Annealing and assay experiments were performed in the following buffer: 50 mM Tris pH 7.5, 25 mM NaCl, 2 mM MgCl2, 1 mM DTT, 0.01% Tween-20.
Initial optimizations were carried out in 384-well format at a 40 µL total reaction volume. Briefly, 30 µL of APE1 were pipetted into the plate and incubated at room temperature for 10 min; subsequently, 10 µL of substrate were added to start the reaction. The final assay concentrations of the enzyme and substrate were 0.75 nM and 50 nM, respectively. Kinetic fluorescence data were collected on a ViewLux high-throughput CCD imager (Perkin Elmer, Waltham, MA) equipped with standard FITC (excitation filter 480 nm and emission filter 530 nm) or BODIPY (excitation filter 525 nm and emission filter 598 nm) optics.
Three µl of reagents (buffer in columns 3 and 4 as negative control and APE1 in columns 1, 2, 5–48) were dispensed into a 1536-well plate. Compounds (DMSO solutions) and control (DMSO only) (23 nL) were transferred via Kalypsys pintool equipped with 1536-pin array. The plate was incubated for 15 min at room temperature, and then 1 µL of substrate (50 nM final concentration) was added to start the reaction. Library plates were screened from the lowest to highest concentration.
Screening data were corrected and normalized, and concentration–effect relationships were derived by using in-house developed, publicly available algorithms (http://www.ncgc.nih.gov/pub/openhts/curvefit/). Percent activity was computed after normalization against the uninhibited, or neutral, control (64 wells, entire columns 1 and 2) and the no-enzyme, or 100% inhibited, control (64 wells, entire columns 3 and 4), respectively. A four parameter Hill equation was fitted to the concentration-response data by minimizing the residual error between the modeled and observed responses.

[7] = target: unlabeled double-stranded DNA substrate; assay: ThO dye-displacement assay (DNA binding); conditions: 50 nM DNA, 250 nM ThO
APE1 [8] = target: T2, APE1; assay: Radiotracer (32P, gel-based) incision assay; type: biochemical; conditions: for IC50: range of inhibitor concentrations, data not shown, read-out: approximate IC50 in radiotracer assay
[9] = set-up: method as in PMID 7019686; conditions: cited from earlier work

Row | Compound | outcome in cell-based experiments [1] | inhibition of total AP site cleavage activity [2] | inhibition of total AP site cleavage activity [3] | activity against EndoIV compared with APE1 (in words) (E. coli EndoIV) | IC50 (E. coli EndoIV) | percent cell killing, MMS plus inhibitor relative to alkylator or inhibitor alone (HeLa cells [4]) | AP site damage, inhibitor alone (HeLa cells [5]) | AP site damage, inhibitor plus MMS (HeLa cells [5]) | IC50 (APE1 [6]) | IC50 [7] | Gel: inhibition detected or not in radiotracer incision assay (APE1 [8]; APE1, 32P-labeled THF substrate) | IC50 (APE1 [8]) | mutagenesis in the Ames Test [9]
1 | O=C(O)c1cc[c]([Sb](=[O])([OH])[OH])cc1[N+](=O)[O-] [NSC-13755] | fail in cell-based experiments | complete inhibition | complete inhibition |  |  |  |  |  |  |  |  |  | 
2 | Nc1c(S(=O)(=O)O)cc(Nc2ccc(Nc3nc(Cl)nc(Nc4cccc(S(=O)(=O)O)c4)n3)c(S(=O)(=O)O)c2)c2c1C(=O)c1ccccc1C2=O [Reactive Blue 2] |  | ≥ 80% | ≥ 80% | completely inactive or weakly active | 10 µM | greater than additive increase | increased AP site damage relative to the control cells | potentiated the genotoxic potential of MMS | 0.25 µM | 8.9 µM | Yes | < 0.5 µM | 
3 | O=c1c(O)c(-c2cc(O)c(O)c(O)c2)oc2cc(O)cc(O)c12 [myricetin] |  | ≥ 80% | ≥ 80% | completely inactive or weakly active | > 57 µM |  | increased AP site damage relative to the control cells | potentiated the genotoxic potential of MMS | 0.32 µM | 3.5 µM |  | < 0.5 µM | promote mutagenesis
